Measurements published in ChEMBL document CHEMBL5724914, “Linking interpersonal differences in gut microbiota composition and drug biotransformation activity” (2024).

Conditions: human gut metagenome, 24 h, 2 µM
Note: call rule not given here.

| Bacterial Biotransformation | SMILES |
| --- | --- |
| Compound NOT metabolized | CC(C)(C)NC[C@H](O)COc1nsnc1N1CCOCC1.O=C(O)/C=C\C(=O)O [TIMOLOL MALEATE] |
| Compound NOT metabolized | CC[C@@]1(O)C(=O)OCc2c1cc1n(c2=O)Cc2cc3c(CN(C)C)c(O)ccc3nc2-1 [TOPOTECAN] |

Conditions: human gut metagenome, 24 h, 2 µM
Remark: another data set of the same source

| Bacterial Biotransformation | SMILES |
| --- | --- |
| Compound NOT metabolized | CC(C)(C)NC[C@H](O)COc1nsnc1N1CCOCC1.O=C(O)/C=C\C(=O)O [TIMOLOL MALEATE] |
| Compound NOT metabolized | CC[C@@]1(O)C(=O)OCc2c1cc1n(c2=O)Cc2cc3c(CN(C)C)c(O)ccc3nc2-1 [TOPOTECAN] |

Experiment: (§1) The drug is tested on WLS-220 corresponding to human gut metagenome with ENA study accession number: PRJEB37062 and ENA sample accession number: ERS12561769 for biotransformation under anaerobic condition. The drug concentrations were measured over 9 timepoints collected between 0 and 24 hours of incubation by liquid-chromatography-coupled mass spectrometry (LC–MS)
Conditions: 2 µM

| Bacterial Biotransformation | SMILES |
| --- | --- |
| Compound NOT metabolized | CC(C)(C)NC[C@H](O)COc1nsnc1N1CCOCC1.O=C(O)/C=C\C(=O)O [TIMOLOL MALEATE] |
| Compound NOT metabolized | CC[C@@]1(O)C(=O)OCc2c1cc1n(c2=O)Cc2cc3c(CN(C)C)c(O)ccc3nc2-1 [TOPOTECAN] |

Experiment: as §1, with “Z-003” for “WLS-220”, “pig” for “human”, “ERS12561803” for “ERS12561769”
Conditions: 2 µM

| Bacterial Biotransformation | SMILES |
| --- | --- |
| Compound NOT metabolized | CC(C)(C)NC[C@H](O)COc1nsnc1N1CCOCC1.O=C(O)/C=C\C(=O)O [TIMOLOL MALEATE] |
| Compound NOT metabolized | CC[C@@]1(O)C(=O)OCc2c1cc1n(c2=O)Cc2cc3c(CN(C)C)c(O)ccc3nc2-1 [TOPOTECAN] |

Conditions: human gut metagenome, 24 h, 2 µM
Remark: another data set of the same source

| Bacterial Biotransformation | SMILES |
| --- | --- |
| Compound NOT metabolized | CC(C)(C)NC[C@H](O)COc1nsnc1N1CCOCC1.O=C(O)/C=C\C(=O)O [TIMOLOL MALEATE] |
| Compound NOT metabolized | CC[C@@]1(O)C(=O)OCc2c1cc1n(c2=O)Cc2cc3c(CN(C)C)c(O)ccc3nc2-1 [TOPOTECAN] |

Experiment: as §1, with “Z-020” for “WLS-220”, “rabbit” for “human”, “ERS12561819” for “ERS12561769”
Conditions: 2 µM

| Bacterial Biotransformation | SMILES |
| --- | --- |
| Compound NOT metabolized | CC(C)(C)NC[C@H](O)COc1nsnc1N1CCOCC1.O=C(O)/C=C\C(=O)O [TIMOLOL MALEATE] |
| Compound NOT metabolized | CC[C@@]1(O)C(=O)OCc2c1cc1n(c2=O)Cc2cc3c(CN(C)C)c(O)ccc3nc2-1 [TOPOTECAN] |

Experiment: as §1, with “WLS-077” for “WLS-220”, “ERS12561750” for “ERS12561769”
Conditions: 2 µM

| Bacterial Biotransformation | SMILES |
| --- | --- |
| Compound NOT metabolized | CC(C)(C)NC[C@H](O)COc1nsnc1N1CCOCC1.O=C(O)/C=C\C(=O)O [TIMOLOL MALEATE] |
| Compound NOT metabolized | CC[C@@]1(O)C(=O)OCc2c1cc1n(c2=O)Cc2cc3c(CN(C)C)c(O)ccc3nc2-1 [TOPOTECAN] |

Experiment: as §1, with “Z-030” for “WLS-220”, “mouse” for “human”, “ERS12561829” for “ERS12561769”
Conditions: 2 µM

| Bacterial Biotransformation | SMILES |
| --- | --- |
| Compound NOT metabolized | CC(C)(C)NC[C@H](O)COc1nsnc1N1CCOCC1.O=C(O)/C=C\C(=O)O [TIMOLOL MALEATE] |
| Compound NOT metabolized | CC[C@@]1(O)C(=O)OCc2c1cc1n(c2=O)Cc2cc3c(CN(C)C)c(O)ccc3nc2-1 [TOPOTECAN] |

Conditions: human gut metagenome, 24 h, 2 µM
Remark: another data set of the same source

| Bacterial Biotransformation | SMILES |
| --- | --- |
| Compound NOT metabolized | CC(C)(C)NC[C@H](O)COc1nsnc1N1CCOCC1.O=C(O)/C=C\C(=O)O [TIMOLOL MALEATE] |
| Compound NOT metabolized | CC[C@@]1(O)C(=O)OCc2c1cc1n(c2=O)Cc2cc3c(CN(C)C)c(O)ccc3nc2-1 [TOPOTECAN] |

Experiment: as §1, with “WLS-007” for “WLS-220”, “ERS12561742” for “ERS12561769”
Conditions: 2 µM

| Bacterial Biotransformation | SMILES |
| --- | --- |
| Compound NOT metabolized | CC(C)(C)NC[C@H](O)COc1nsnc1N1CCOCC1.O=C(O)/C=C\C(=O)O [TIMOLOL MALEATE] |
| Compound NOT metabolized | CC[C@@]1(O)C(=O)OCc2c1cc1n(c2=O)Cc2cc3c(CN(C)C)c(O)ccc3nc2-1 [TOPOTECAN] |

Conditions: human gut metagenome, 24 h, 2 µM
Remark: another data set of the same source

| Bacterial Biotransformation | SMILES |
| --- | --- |
| Compound NOT metabolized | CC(C)(C)NC[C@H](O)COc1nsnc1N1CCOCC1.O=C(O)/C=C\C(=O)O [TIMOLOL MALEATE] |
| Compound NOT metabolized | CC[C@@]1(O)C(=O)OCc2c1cc1n(c2=O)Cc2cc3c(CN(C)C)c(O)ccc3nc2-1 [TOPOTECAN] |

Conditions: human gut metagenome, 24 h, 2 µM
Remark: another data set of the same source

| Bacterial Biotransformation | SMILES |
| --- | --- |
| Compound NOT metabolized | CC(C)(C)NC[C@H](O)COc1nsnc1N1CCOCC1.O=C(O)/C=C\C(=O)O [TIMOLOL MALEATE] |
| Compound NOT metabolized | CC[C@@]1(O)C(=O)OCc2c1cc1n(c2=O)Cc2cc3c(CN(C)C)c(O)ccc3nc2-1 [TOPOTECAN] |

Conditions: human gut metagenome, 24 h, 2 µM
Remark: another data set of the same source

| Bacterial Biotransformation | SMILES |
| --- | --- |
| Compound NOT metabolized | CC(C)(C)NC[C@H](O)COc1nsnc1N1CCOCC1.O=C(O)/C=C\C(=O)O [TIMOLOL MALEATE] |
| Compound NOT metabolized | CC[C@@]1(O)C(=O)OCc2c1cc1n(c2=O)Cc2cc3c(CN(C)C)c(O)ccc3nc2-1 [TOPOTECAN] |

Experiment: as §1, with “WLS-310” for “WLS-220”, “ERS12561785” for “ERS12561769”
Conditions: 2 µM

| Bacterial Biotransformation | SMILES |
| --- | --- |
| Compound NOT metabolized | CC(C)(C)NC[C@H](O)COc1nsnc1N1CCOCC1.O=C(O)/C=C\C(=O)O [TIMOLOL MALEATE] |
| Compound NOT metabolized | CC[C@@]1(O)C(=O)OCc2c1cc1n(c2=O)Cc2cc3c(CN(C)C)c(O)ccc3nc2-1 [TOPOTECAN] |

Experiment: as §1, with “Z-026” for “WLS-220”, “to” for “to human gut”, “ERS12561825” for “ERS12561769”
Conditions: 2 µM

| Bacterial Biotransformation | SMILES |
| --- | --- |
| Compound NOT metabolized | CC(C)(C)NC[C@H](O)COc1nsnc1N1CCOCC1.O=C(O)/C=C\C(=O)O [TIMOLOL MALEATE] |
| Compound NOT metabolized | CC[C@@]1(O)C(=O)OCc2c1cc1n(c2=O)Cc2cc3c(CN(C)C)c(O)ccc3nc2-1 [TOPOTECAN] |

Conditions: human gut metagenome, 24 h, 2 µM
Remark: another data set of the same source

| Bacterial Biotransformation | SMILES |
| --- | --- |
| Compound NOT metabolized | CC(C)(C)NC[C@H](O)COc1nsnc1N1CCOCC1.O=C(O)/C=C\C(=O)O [TIMOLOL MALEATE] |
| Compound NOT metabolized | CC[C@@]1(O)C(=O)OCc2c1cc1n(c2=O)Cc2cc3c(CN(C)C)c(O)ccc3nc2-1 [TOPOTECAN] |

Conditions: human gut metagenome, 24 h, 2 µM
Remark: another data set of the same source

| Bacterial Biotransformation | SMILES |
| --- | --- |
| Compound NOT metabolized | CC(C)(C)NC[C@H](O)COc1nsnc1N1CCOCC1.O=C(O)/C=C\C(=O)O [TIMOLOL MALEATE] |
| Compound NOT metabolized | CC[C@@]1(O)C(=O)OCc2c1cc1n(c2=O)Cc2cc3c(CN(C)C)c(O)ccc3nc2-1 [TOPOTECAN] |

Conditions: human gut metagenome, 24 h, 2 µM
Remark: another data set of the same source

| Bacterial Biotransformation | SMILES |
| --- | --- |
| Compound NOT metabolized | CC(C)(C)NC[C@H](O)COc1nsnc1N1CCOCC1.O=C(O)/C=C\C(=O)O [TIMOLOL MALEATE] |
| Compound NOT metabolized | CC[C@@]1(O)C(=O)OCc2c1cc1n(c2=O)Cc2cc3c(CN(C)C)c(O)ccc3nc2-1 [TOPOTECAN] |

Conditions: human gut metagenome, 24 h, 2 µM
Remark: another data set of the same source

| Bacterial Biotransformation | SMILES |
| --- | --- |
| Compound NOT metabolized | CC(C)(C)NC[C@H](O)COc1nsnc1N1CCOCC1.O=C(O)/C=C\C(=O)O [TIMOLOL MALEATE] |
| Compound NOT metabolized | CC[C@@]1(O)C(=O)OCc2c1cc1n(c2=O)Cc2cc3c(CN(C)C)c(O)ccc3nc2-1 [TOPOTECAN] |

Experiment: as §1, with “Z-008” for “WLS-220”, “to” for “to human gut”, “ERS12561808” for “ERS12561769”
Conditions: 2 µM

| Bacterial Biotransformation | SMILES |
| --- | --- |
| Compound NOT metabolized | CC(C)(C)NC[C@H](O)COc1nsnc1N1CCOCC1.O=C(O)/C=C\C(=O)O [TIMOLOL MALEATE] |
| Compound NOT metabolized | CC[C@@]1(O)C(=O)OCc2c1cc1n(c2=O)Cc2cc3c(CN(C)C)c(O)ccc3nc2-1 [TOPOTECAN] |
